{"source": "patent EP0447324B1", "about": "“2,4-Pyrimidinedione derivatives and medicines containing them” (SANOFI, priority 1990, dated 1991)", "system": "peroxydation des lipides membranaires (suspensions de mitochondries)", "assay": "Inhibition of membrane lipid peroxidation in beef heart mitochondria (malonaldehyde formation, dihydroxyfumaric acid/iron)", "assay_type": "biochemical, boeuf", "excerpt": "L'inhibition de la peroxydation lipidique due aux radicaux libres oxygénés, peroxydation particulièrement importante en présence de fer, a été déterminée, in vitro, par la mesure de la quantité d'aldéhyde malonique formée dans des suspensions de mitochondries, mises en présence d'un générateur d'ions superoxydes comme l'acide dihydroxyfumarique.\nL'activité inhibitrice de la peroxydation des lipides membranaires des composés a été déterminée comme suit :\na) préparation des mitochondries\nOn prélève un coeur de boeuf immédiatement après l'abattage de l'animal et le refroidit à 4°C, température à laquelle toutes les opérations suivantes seront effectuées. Le coeur est lavé avec une solution aqueuse tampon à pH 7,4 (TRIS,HCl 10 mM, EDTA 2 mM, KCl 20 mM, saccharose 250 mM) puis les tissus conjonctifs et les graisses sont éliminés. Le muscle est alors haché et le hachis est mis en suspension dans une solution aqueuse tampon à pH 7,4 (TRIS,HCl 10 mM, saccharose 250 mM, EDTA 1 mM) à raison de 700 g de muscle pour 3 litres. Le pH de la suspension est réajusté à 7,4, régulièrement, avant d'isoler le hachis par filtration sur une gaze. […]\nUne gamme étalon de malonaldéhyde bis-(diéthylacétal) dilué dans une solution aqueuse de HCl 0,1 N permet de calculer à quelle concentration d'aldéhyde correspond chaque intensité de la fluorescence i. […]", "note": "Entries after “also recorded” stand apart in the source; their conditions may differ.", "data": [{"smiles": "O=c1[nH]c(=O)c2[nH]c(=O)[nH]c2[nH]1", "note": "[acide urique]", "values": [{"measurement": "inhibition de la peroxydation lipidique (result in words)", "result": "n'inhibe pas; also recorded: inactif"}, {"measurement": "inhibition de la formation de malonaldéhyde", "setting": "concentration inférieure à 100 »M", "result": "n'inhibe pas"}]}]}
